Measured values published in patent US20150224164A1, “TREATMENT OF AUTISM SPECTRUM DISORDERS USING GLYCYL-L-2-METHYLPROLYL-L-GLUMATIC ACID” (Neuren Pharmaceuticals Limited, priority 2013, published 2015).

Tests used:
[1] = Pharmacokinetics after intravenous bolus injection; assay type: in vivo, rat
Experimental: Adult male Wistar rats weighing between 180 and 240 g were used to determine the pharmacokinetics of GPE and G2MePE. To facilitate intravenous bolus injections and blood sampling, all rats were surgically implanted with an indwelling jugular venous cannula under halothane anesthesia three days before the experiment. Groups of six rats were given a single intravenous bolus injection of either 30 mg/kg GPE or 10 mg/kg G2MePE dissolved in 0.1M succinate buffer (pH 6.5). Blood samples (about 220 μl each) were collected into heparinized tubes containing Sigma protease inhibitor cocktail for mammalian tissues at 10 and 0 min before injection of either GPE or G2MePE, and 1, 2, 4, 8, 16, 32, 64 and 128 min after injection of either GPE or G2MePE. The samples were centrifuged at 3000 g for 15 min at 4° C. and the plasma removed and stored at −80° C. until extraction and assay by either radioimmunoassay (“RIA”) or reverse phase HPLC. The RIA and HPLC methods used were conventional.
The k and half-life (t1/2) were calculated from the slope of the linear regression line in the elimination phase of the semi-logarithmic plot of plasma concentration versus time as: Log C=−kt/2.3+log C0. Results were expressed as mean±standard error.

MeCP2 knock-out mice = details: MeCP2 knock-out model; cited from earlier work
[2] = system: cortical neurons injured with okadaic acid; assay: In vitro neuroprotection, cortical cultures injured with okadaic acid (MTT); assay type: cell-based, rat; details: 10 μM; okadaic acid injury; 24 hours incubation; MTT-assay
Experimental: A dam was sacrificed by CO2-treatment, and then was prepared for caesarean section. After surgery, the embryos were removed from their amniotic sacs and decapitated. The heads were placed on ice in DMEM/F12 medium for striatum and PBS+0.65% D(+)-glucose for cortex.
The two cortical hemispheres were carefully removed by spatula from the whole brain with the ventral side facing upside into a PBS+0.65% D(+)-glucose containing petri dish. Forceps were put into the rostral part (near B. olfactorius) of the cortex in order to fix the tissue and two lateral-sagittal oriented cuts were made to remove the […] and entorhinal cortices. […]
The cells were triturated once with a glass Pasteur pipette in 1 ml of Neurobasal/B27 medium and subsequently twice by using a 1 ml insulin syringe with a 22 gauge needle. […] Cells were counted and adjusted to 50,000 cells per 60 μl. […]
To cause toxic injury to neurons, we exposed neurons to 1:100 parts of okadaic acid at concentrations of 30 nM or 100 nM and 0.5 mM 3-nitropropionic acid (for cerebellar microexplants only). […] The survival rate was determined by a colorimetric end-point MTT-assay at 595 nm in a multi-well plate reader. For the cerebellar microexplants four windows (field of 0.65 mm^2) with highest cell density were chosen and cells displaying neurite outgrowth were counted.

For `NCC(=O)N1CCC[C@H]1C(=O)N[C@@H](CCC(=O)O)C(=O)O` [GPE, glycyl-L-prolyl-L-glutamic acid, reference compound], the degradation ([1]; in vivo and in vitro) was “rapidly degraded”, the first order rate constant ([1]; single i.v. bolus, GPE 30 mg/kg, G-2-MePE 10 mg/kg) was 0.15 ± 0.014 min⁻¹ and the peak plasma concentration ([1]; single i.v. bolus, GPE 30 mg/kg, G-2-MePE 10 mg/kg, mean±standard error) was 40 ± 10.8 µg/mL. For the same compound, the “life span and neuronal function” value (MeCP2 knock-out mice) was “prolong life and increase neuronal function” and the neuroprotection [2] was 64%.
